In the first assay the target is AKT3 (human) (UniProt Q9Y243). Put plainly: radiometric filter-binding kinase assay, Kinase HotSpot. The following applies: compound 0.5 µM; ATP 10 µM.
Chain of AKT3 (human) (Q9Y243 whole entry, looked up): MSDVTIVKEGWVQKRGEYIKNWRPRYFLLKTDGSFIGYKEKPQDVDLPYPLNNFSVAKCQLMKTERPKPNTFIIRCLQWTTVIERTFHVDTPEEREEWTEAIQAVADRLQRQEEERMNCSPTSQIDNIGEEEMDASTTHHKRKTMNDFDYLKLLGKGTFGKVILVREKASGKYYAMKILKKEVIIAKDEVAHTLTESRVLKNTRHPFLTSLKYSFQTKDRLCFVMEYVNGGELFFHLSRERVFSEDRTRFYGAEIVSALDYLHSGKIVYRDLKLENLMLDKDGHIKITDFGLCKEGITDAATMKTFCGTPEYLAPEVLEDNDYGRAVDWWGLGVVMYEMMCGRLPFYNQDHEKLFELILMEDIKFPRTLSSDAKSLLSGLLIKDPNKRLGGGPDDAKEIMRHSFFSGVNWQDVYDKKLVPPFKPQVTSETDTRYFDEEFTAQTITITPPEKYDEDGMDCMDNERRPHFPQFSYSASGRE
Chain of CAMK2G (human) (Q13555 whole entry, looked up): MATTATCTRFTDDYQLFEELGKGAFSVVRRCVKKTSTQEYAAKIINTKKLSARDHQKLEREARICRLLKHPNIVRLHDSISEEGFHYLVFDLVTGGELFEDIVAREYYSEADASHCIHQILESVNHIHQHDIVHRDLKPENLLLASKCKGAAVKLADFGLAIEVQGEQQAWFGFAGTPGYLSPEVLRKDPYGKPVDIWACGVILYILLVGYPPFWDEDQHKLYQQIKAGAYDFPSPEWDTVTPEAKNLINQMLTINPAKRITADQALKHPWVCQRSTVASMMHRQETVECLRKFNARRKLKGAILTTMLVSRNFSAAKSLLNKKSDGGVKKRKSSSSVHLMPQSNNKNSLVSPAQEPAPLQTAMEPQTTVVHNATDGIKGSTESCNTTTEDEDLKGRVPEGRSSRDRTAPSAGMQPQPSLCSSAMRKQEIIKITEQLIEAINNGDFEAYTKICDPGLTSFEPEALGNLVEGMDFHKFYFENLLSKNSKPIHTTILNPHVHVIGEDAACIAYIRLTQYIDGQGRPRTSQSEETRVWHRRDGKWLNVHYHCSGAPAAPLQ
Chain of DAPK2 (human) (Q9UIK4 whole entry, looked up): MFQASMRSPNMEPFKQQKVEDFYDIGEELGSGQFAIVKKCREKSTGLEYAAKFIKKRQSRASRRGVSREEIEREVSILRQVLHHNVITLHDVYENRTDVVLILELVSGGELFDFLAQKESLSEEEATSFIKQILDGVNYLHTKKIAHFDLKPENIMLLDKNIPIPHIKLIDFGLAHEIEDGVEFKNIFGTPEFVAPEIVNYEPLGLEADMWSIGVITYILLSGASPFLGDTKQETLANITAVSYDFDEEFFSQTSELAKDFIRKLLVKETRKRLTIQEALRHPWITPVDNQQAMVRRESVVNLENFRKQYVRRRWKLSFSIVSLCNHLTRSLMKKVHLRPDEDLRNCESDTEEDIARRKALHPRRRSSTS
Chain of CAMK2A (human) (Q9UQM7 whole entry, looked up): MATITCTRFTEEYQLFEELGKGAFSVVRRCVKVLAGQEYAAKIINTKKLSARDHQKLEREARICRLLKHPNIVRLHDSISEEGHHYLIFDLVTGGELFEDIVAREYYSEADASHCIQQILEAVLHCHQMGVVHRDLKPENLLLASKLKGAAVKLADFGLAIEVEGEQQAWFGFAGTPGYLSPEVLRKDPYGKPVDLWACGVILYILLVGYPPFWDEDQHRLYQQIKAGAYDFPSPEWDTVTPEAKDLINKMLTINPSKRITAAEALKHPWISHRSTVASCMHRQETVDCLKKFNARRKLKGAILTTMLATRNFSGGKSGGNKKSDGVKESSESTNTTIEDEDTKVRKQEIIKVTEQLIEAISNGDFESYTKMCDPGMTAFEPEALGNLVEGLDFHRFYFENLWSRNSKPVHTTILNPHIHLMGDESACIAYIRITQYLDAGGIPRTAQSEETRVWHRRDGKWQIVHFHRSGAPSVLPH
As a reminder, the residual activity is the signal under treatment as a percentage of the control signal. Regarding `O=C1NC(=O)C(c2cn(CCCn3ccnc3)c3ccccc23)=C1Nc1ccccc1`, the residual activity was 71%.

In the case of `CCCC(=O)Oc1ccc2[nH]c(C(=O)c3cc4ccccc4[nH]3)cc2c1`, the residual activity worked out at 101%.

Regarding `Nc1ncnc2c1c(-c1ccc(Oc3ccccc3)cc1)cn2C1CCCC1`, the residual activity was determined as 98.2%.

Another assay addresses CAMK2A (human) (UniProt Q9UQM7). The description is as above. The following applies: compound 0.5 µM; ATP 10 µM.
With `O=C1NC(=O)C(c2cn(CCCn3ccnc3)c3ccccc23)=C1Nc1ccccc1`, the residual activity came to 95.5%.

Regarding `CCCC(=O)Oc1ccc2[nH]c(C(=O)c3cc4ccccc4[nH]3)cc2c1`, the residual activity is 87%.

Turning to `Nc1ncnc2c1c(-c1ccc(Oc3ccccc3)cc1)cn2C1CCCC1`, the residual activity was 113%.

The next assay deals with CAMK2B (human) (UniProt Q13554). Described as above. The following applies: compound 0.5 µM; ATP 10 µM.
Chain of CAMK2B (human) (Q13554 whole entry, looked up): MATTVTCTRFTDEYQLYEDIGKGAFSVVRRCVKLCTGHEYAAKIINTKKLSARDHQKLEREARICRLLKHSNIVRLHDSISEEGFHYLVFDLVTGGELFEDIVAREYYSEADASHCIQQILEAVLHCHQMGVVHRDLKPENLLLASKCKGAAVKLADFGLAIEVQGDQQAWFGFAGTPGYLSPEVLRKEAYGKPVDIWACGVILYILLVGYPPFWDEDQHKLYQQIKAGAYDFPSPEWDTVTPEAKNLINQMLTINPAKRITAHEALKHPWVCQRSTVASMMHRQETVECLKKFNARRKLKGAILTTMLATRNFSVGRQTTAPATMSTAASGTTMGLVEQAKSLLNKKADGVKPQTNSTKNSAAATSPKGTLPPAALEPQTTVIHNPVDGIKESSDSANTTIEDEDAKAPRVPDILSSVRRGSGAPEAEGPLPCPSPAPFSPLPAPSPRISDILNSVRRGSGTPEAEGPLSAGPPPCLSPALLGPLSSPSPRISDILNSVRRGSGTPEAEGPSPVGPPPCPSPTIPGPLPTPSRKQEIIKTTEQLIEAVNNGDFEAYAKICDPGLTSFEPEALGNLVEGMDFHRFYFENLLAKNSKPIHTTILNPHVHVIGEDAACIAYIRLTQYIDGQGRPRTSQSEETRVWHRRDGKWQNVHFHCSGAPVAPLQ
With `O=C1NC(=O)C(c2cn(CCCn3ccnc3)c3ccccc23)=C1Nc1ccccc1`, the residual activity worked out at 93.8%.

`CCCC(=O)Oc1ccc2[nH]c(C(=O)c3cc4ccccc4[nH]3)cc2c1`: the residual activity was determined as 90%.

`Nc1ncnc2c1c(-c1ccc(Oc3ccccc3)cc1)cn2C1CCCC1`: the residual activity came to 102%.

The target in the next assay is CAMK2D (human) (UniProt Q13557). Described as above. The note with it: compound 0.5 µM; ATP 10 µM.
Take `O=C1NC(=O)C(c2cn(CCCn3ccnc3)c3ccccc23)=C1Nc1ccccc1`: the residual activity was determined as 85.4%.

On to `CCCC(=O)Oc1ccc2[nH]c(C(=O)c3cc4ccccc4[nH]3)cc2c1`, for which the residual activity is 111%.

Consider `Nc1ncnc2c1c(-c1ccc(Oc3ccccc3)cc1)cn2C1CCCC1`, for which the residual activity was determined as 99.5%.

Another assay has as its target CAMK2G (human) (UniProt Q13555). The assay is described as above. The following applies: compound 0.5 µM; ATP 10 µM.
For `O=C1NC(=O)C(c2cn(CCCn3ccnc3)c3ccccc23)=C1Nc1ccccc1`, the residual activity worked out at 90.9%.

As to `CCCC(=O)Oc1ccc2[nH]c(C(=O)c3cc4ccccc4[nH]3)cc2c1`, the residual activity was 99.4%.

Take `Nc1ncnc2c1c(-c1ccc(Oc3ccccc3)cc1)cn2C1CCCC1`: the residual activity came out at 95%.

Another assay concerns the target CDK2 CCNE1 (human) (UniProt P24941+P24864). The assay is described as above. The note with it: compound 0.5 µM; ATP 10 µM.
With `O=C1NC(=O)C(c2cn(CCCn3ccnc3)c3ccccc23)=C1Nc1ccccc1`, the residual activity amounted to 81.8%.

Turning to `CCCC(=O)Oc1ccc2[nH]c(C(=O)c3cc4ccccc4[nH]3)cc2c1`, the residual activity was determined as 92.1%.

`Nc1ncnc2c1c(-c1ccc(Oc3ccccc3)cc1)cn2C1CCCC1`: the residual activity amounted to 91.3%.

The target of a further assay is CDK4 CCND1 (human) (UniProt P24385+P11802). Described as above. The following applies: compound 0.5 µM; ATP 10 µM.
With `O=C1NC(=O)C(c2cn(CCCn3ccnc3)c3ccccc23)=C1Nc1ccccc1`, the residual activity is 99.1%.

In the case of `CCCC(=O)Oc1ccc2[nH]c(C(=O)c3cc4ccccc4[nH]3)cc2c1`, the residual activity amounted to 106%.

Turning to `Nc1ncnc2c1c(-c1ccc(Oc3ccccc3)cc1)cn2C1CCCC1`, the residual activity came out at 121%.

The next assay deals with CDK4 CCND3 (human) (UniProt P30281+P11802). Described as above. The note with it: compound 0.5 µM; ATP 10 µM.
On to `O=C1NC(=O)C(c2cn(CCCn3ccnc3)c3ccccc23)=C1Nc1ccccc1`, for which the residual activity amounted to 91%.

Consider `CCCC(=O)Oc1ccc2[nH]c(C(=O)c3cc4ccccc4[nH]3)cc2c1`, for which the residual activity worked out at 103%.

Turning to `Nc1ncnc2c1c(-c1ccc(Oc3ccccc3)cc1)cn2C1CCCC1`, the residual activity was 108%.

For a further assay, the target named is CDK6 CCND3 (human) (UniProt P30281+Q00534). The assay is described as above. The note with it: compound 0.5 µM; ATP 10 µM.
On to `O=C1NC(=O)C(c2cn(CCCn3ccnc3)c3ccccc23)=C1Nc1ccccc1`, for which the residual activity turned out to be 104%.

For `CCCC(=O)Oc1ccc2[nH]c(C(=O)c3cc4ccccc4[nH]3)cc2c1`, the residual activity worked out at 92.5%.

On to `Nc1ncnc2c1c(-c1ccc(Oc3ccccc3)cc1)cn2C1CCCC1`, for which the residual activity stood at 97.2%.

The target in the next assay is CHEK1 (human) (UniProt O14757). The assay is described as above. The following applies: compound 0.5 µM; ATP 10 µM.
Chain of CHEK1 (human) (O14757 whole entry, looked up): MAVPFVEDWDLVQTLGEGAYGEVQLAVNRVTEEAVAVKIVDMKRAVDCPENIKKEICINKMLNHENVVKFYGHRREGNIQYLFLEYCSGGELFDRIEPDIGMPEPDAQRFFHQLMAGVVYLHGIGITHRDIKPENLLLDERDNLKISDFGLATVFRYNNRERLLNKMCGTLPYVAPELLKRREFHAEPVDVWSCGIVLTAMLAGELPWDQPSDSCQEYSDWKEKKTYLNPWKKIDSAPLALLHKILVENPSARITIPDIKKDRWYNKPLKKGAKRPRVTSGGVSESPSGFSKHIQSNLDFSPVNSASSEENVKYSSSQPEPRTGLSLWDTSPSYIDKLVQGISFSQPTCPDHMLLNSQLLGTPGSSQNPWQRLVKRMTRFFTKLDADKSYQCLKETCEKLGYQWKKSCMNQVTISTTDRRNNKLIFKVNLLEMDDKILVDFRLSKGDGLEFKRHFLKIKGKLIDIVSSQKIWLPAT
Regarding `O=C1NC(=O)C(c2cn(CCCn3ccnc3)c3ccccc23)=C1Nc1ccccc1`, the residual activity worked out at 76.6%.

Consider `CCCC(=O)Oc1ccc2[nH]c(C(=O)c3cc4ccccc4[nH]3)cc2c1`, for which the residual activity came out at 89.7%.

Regarding `Nc1ncnc2c1c(-c1ccc(Oc3ccccc3)cc1)cn2C1CCCC1`, the residual activity came out at 113%.

Another assay concerns the target CLK1 (human) (UniProt P49759). The assay is described as above. The following applies: compound 0.5 µM; ATP 10 µM.
As for `O=C1NC(=O)C(c2cn(CCCn3ccnc3)c3ccccc23)=C1Nc1ccccc1`, the residual activity stood at 43.3%.

For the molecule `CCCC(=O)Oc1ccc2[nH]c(C(=O)c3cc4ccccc4[nH]3)cc2c1`, the residual activity turned out to be 99.3%.

As to `Nc1ncnc2c1c(-c1ccc(Oc3ccccc3)cc1)cn2C1CCCC1`, the residual activity amounted to 103%.

The next assay addresses DAPK2 (human) (UniProt Q9UIK4). Described as above. The note with it: compound 0.5 µM; ATP 10 µM.
For the molecule `O=C1NC(=O)C(c2cn(CCCn3ccnc3)c3ccccc23)=C1Nc1ccccc1`, the residual activity was 104%.

Consider `CCCC(=O)Oc1ccc2[nH]c(C(=O)c3cc4ccccc4[nH]3)cc2c1`, for which the residual activity stood at 88.4%.

As to `Nc1ncnc2c1c(-c1ccc(Oc3ccccc3)cc1)cn2C1CCCC1`, the residual activity came out at 87.6%.

The target in another assay is DAPK3 (human) (UniProt O43293). Described as above. The note with it: compound 0.5 µM; ATP 10 µM.
Regarding `O=C1NC(=O)C(c2cn(CCCn3ccnc3)c3ccccc23)=C1Nc1ccccc1`, the residual activity was determined as 104%.

Turning to `CCCC(=O)Oc1ccc2[nH]c(C(=O)c3cc4ccccc4[nH]3)cc2c1`, the residual activity was found to be 88.5%.

For `Nc1ncnc2c1c(-c1ccc(Oc3ccccc3)cc1)cn2C1CCCC1`, the residual activity was determined as 114%.

The next assay has as its target EPHB3 (human) (UniProt P54753). Described as above. The note with it: compound 0.5 µM; ATP 10 µM.
`O=C1NC(=O)C(c2cn(CCCn3ccnc3)c3ccccc23)=C1Nc1ccccc1`: the residual activity is 99.7%.

Turning to `CCCC(=O)Oc1ccc2[nH]c(C(=O)c3cc4ccccc4[nH]3)cc2c1`, the residual activity was 94.2%.

Consider `Nc1ncnc2c1c(-c1ccc(Oc3ccccc3)cc1)cn2C1CCCC1`, for which the residual activity stood at 93.4%.

The target in the next assay is FRK (human) (UniProt P42685). The description is as above. The note with it: compound 0.5 µM; ATP 10 µM.
Regarding `O=C1NC(=O)C(c2cn(CCCn3ccnc3)c3ccccc23)=C1Nc1ccccc1`, the residual activity came to 107%.

`CCCC(=O)Oc1ccc2[nH]c(C(=O)c3cc4ccccc4[nH]3)cc2c1`: the residual activity stood at 98.2%.

With `Nc1ncnc2c1c(-c1ccc(Oc3ccccc3)cc1)cn2C1CCCC1`, the residual activity came out at 6.25%.

In another assay the target is HIPK1 (human) (UniProt Q86Z02). The assay is described as above. The note with it: compound 0.5 µM; ATP 10 µM.
Chain of HIPK1 (human) (Q86Z02 whole entry, looked up): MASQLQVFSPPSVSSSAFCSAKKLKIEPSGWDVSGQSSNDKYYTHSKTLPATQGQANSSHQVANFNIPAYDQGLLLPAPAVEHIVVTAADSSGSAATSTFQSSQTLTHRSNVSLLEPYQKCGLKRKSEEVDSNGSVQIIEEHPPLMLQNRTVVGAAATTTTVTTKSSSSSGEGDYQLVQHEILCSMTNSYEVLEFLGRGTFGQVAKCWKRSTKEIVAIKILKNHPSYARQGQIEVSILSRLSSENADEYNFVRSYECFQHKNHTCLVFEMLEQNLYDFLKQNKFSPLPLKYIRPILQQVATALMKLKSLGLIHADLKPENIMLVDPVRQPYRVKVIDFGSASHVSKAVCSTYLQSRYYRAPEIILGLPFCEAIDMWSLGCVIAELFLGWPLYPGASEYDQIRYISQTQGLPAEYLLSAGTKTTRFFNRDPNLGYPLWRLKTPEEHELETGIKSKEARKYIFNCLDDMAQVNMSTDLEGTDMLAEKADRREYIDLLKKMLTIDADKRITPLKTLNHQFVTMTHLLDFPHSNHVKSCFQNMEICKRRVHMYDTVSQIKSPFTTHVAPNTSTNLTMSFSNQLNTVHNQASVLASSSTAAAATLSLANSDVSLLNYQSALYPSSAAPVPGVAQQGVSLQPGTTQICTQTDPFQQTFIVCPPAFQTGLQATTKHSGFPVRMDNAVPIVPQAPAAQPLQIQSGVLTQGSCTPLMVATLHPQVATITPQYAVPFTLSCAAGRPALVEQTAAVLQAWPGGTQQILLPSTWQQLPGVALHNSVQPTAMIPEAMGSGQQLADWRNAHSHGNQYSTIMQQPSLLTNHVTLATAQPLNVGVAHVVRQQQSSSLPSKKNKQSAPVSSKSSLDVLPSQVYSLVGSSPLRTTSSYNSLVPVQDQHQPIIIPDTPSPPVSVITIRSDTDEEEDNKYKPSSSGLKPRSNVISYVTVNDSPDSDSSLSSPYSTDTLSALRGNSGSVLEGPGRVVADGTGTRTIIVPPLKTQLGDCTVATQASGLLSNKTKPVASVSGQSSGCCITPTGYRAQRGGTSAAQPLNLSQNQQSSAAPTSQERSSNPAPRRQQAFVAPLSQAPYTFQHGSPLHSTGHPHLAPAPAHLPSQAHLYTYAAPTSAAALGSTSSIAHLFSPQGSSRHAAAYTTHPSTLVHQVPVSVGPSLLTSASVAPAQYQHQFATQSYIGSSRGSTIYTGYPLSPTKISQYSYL
With `O=C1NC(=O)C(c2cn(CCCn3ccnc3)c3ccccc23)=C1Nc1ccccc1`, the residual activity stood at 102%.

For `CCCC(=O)Oc1ccc2[nH]c(C(=O)c3cc4ccccc4[nH]3)cc2c1`, the residual activity came out at 101%.

As for `Nc1ncnc2c1c(-c1ccc(Oc3ccccc3)cc1)cn2C1CCCC1`, the residual activity amounted to 114%.

For the next assay, the target named is IKBKE (human) (UniProt Q14164). The description is as above. The note with it: compound 0.5 µM; ATP 10 µM.
Chain of IKBKE (human) (Q14164 whole entry, looked up): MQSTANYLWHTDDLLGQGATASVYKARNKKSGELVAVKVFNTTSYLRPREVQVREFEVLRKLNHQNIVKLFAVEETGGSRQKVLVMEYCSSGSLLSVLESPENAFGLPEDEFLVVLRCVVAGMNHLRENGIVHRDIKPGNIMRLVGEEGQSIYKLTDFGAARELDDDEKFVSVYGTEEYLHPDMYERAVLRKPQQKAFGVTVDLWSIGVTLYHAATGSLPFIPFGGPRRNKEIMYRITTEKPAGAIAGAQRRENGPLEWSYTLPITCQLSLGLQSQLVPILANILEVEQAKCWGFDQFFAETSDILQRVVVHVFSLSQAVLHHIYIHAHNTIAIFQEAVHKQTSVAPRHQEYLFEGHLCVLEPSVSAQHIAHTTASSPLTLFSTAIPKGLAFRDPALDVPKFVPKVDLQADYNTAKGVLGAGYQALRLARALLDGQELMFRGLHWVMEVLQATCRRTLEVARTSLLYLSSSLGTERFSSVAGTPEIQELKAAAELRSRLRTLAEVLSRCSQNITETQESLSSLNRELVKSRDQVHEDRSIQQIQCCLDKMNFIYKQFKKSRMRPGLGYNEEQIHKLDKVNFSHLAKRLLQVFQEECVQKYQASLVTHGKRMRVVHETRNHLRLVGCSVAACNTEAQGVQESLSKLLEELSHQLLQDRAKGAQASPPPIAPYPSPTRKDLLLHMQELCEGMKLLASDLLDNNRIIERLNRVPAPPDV
As to `O=C1NC(=O)C(c2cn(CCCn3ccnc3)c3ccccc23)=C1Nc1ccccc1`, the residual activity is 87%.

Turning to `CCCC(=O)Oc1ccc2[nH]c(C(=O)c3cc4ccccc4[nH]3)cc2c1`, the residual activity was 91.4%.

As for `Nc1ncnc2c1c(-c1ccc(Oc3ccccc3)cc1)cn2C1CCCC1`, the residual activity was determined as 97.4%.

The next assay concerns the target IRAK1 (human) (UniProt P51617). Described as above. The following applies: compound 0.5 µM; ATP 10 µM.
As to `O=C1NC(=O)C(c2cn(CCCn3ccnc3)c3ccccc23)=C1Nc1ccccc1`, the residual activity amounted to 118%.

Take `CCCC(=O)Oc1ccc2[nH]c(C(=O)c3cc4ccccc4[nH]3)cc2c1`: the residual activity turned out to be 90.5%.

Turning to `Nc1ncnc2c1c(-c1ccc(Oc3ccccc3)cc1)cn2C1CCCC1`, the residual activity came to 110%.

For the next assay, the target named is ITK (human) (UniProt Q08881). The assay is described as above. The note with it: compound 0.5 µM; ATP 10 µM.
With `O=C1NC(=O)C(c2cn(CCCn3ccnc3)c3ccccc23)=C1Nc1ccccc1`, the residual activity was found to be 93.9%.

As to `CCCC(=O)Oc1ccc2[nH]c(C(=O)c3cc4ccccc4[nH]3)cc2c1`, the residual activity stood at 82%.

Take `Nc1ncnc2c1c(-c1ccc(Oc3ccccc3)cc1)cn2C1CCCC1`: the residual activity came out at 87.1%.

The target of another assay is JAK3 JH1 JH2 (human) (UniProt P52333). The assay is described as above. The following applies: compound 0.5 µM; ATP 10 µM.
In the case of `O=C1NC(=O)C(c2cn(CCCn3ccnc3)c3ccccc23)=C1Nc1ccccc1`, the residual activity came out at 7.97%.

On to `CCCC(=O)Oc1ccc2[nH]c(C(=O)c3cc4ccccc4[nH]3)cc2c1`, for which the residual activity was determined as 95.6%.

As for `Nc1ncnc2c1c(-c1ccc(Oc3ccccc3)cc1)cn2C1CCCC1`, the residual activity came to 105%.

A further assay concerns the target MAP4K2 (human) (UniProt Q12851). Described as above. The following applies: compound 0.5 µM; ATP 10 µM.
Turning to `O=C1NC(=O)C(c2cn(CCCn3ccnc3)c3ccccc23)=C1Nc1ccccc1`, the residual activity worked out at 85.7%.

Take `CCCC(=O)Oc1ccc2[nH]c(C(=O)c3cc4ccccc4[nH]3)cc2c1`: the residual activity was 95.3%.

On to `Nc1ncnc2c1c(-c1ccc(Oc3ccccc3)cc1)cn2C1CCCC1`, for which the residual activity came out at 89.4%.

These data come from the kinase profiling compilation of Christmann-Franck et al. (2016).
